Experimental data as given in patent US11278550B2, “Compositions and methods for the treatment of Prader-Willi syndrome” (Duke University, priority 2016, dated 2022).

Legend:
maternal Snrpn-EGFP MEFs = experiment: High content screening / concentration response of Snrpn-EGFP unsilencing; type: cell-based, mouse; details: mS-EGFP/p+ MEFs
Procedure: High content screenings of small molecules were performed as described in Huang, et al. Nature 481, 185-189 (2012). HCS comprises a 384-well high-content screen using primary mouse embryonic fibroblasts (MEFs) from m^S-EGFP/p^+, and searched for drug-like molecules that could unsilence the maternal S-EFGP allele. […] To perform the screen, primary MEFs were isolated from E12.5-14.5 embryos of m^S-EGFP/p^+ and cultured for 7 days in Dulbecco's modified Eagle's media supplemented with 10% fetal bovine serum, 100 Units/mL penicillin and 100 μg/mL streptomycin, at 37° C. and 5% CO2. One day before treatment with small molecules, 5,000 cells per well were plated onto 384-well plates. The cells were then treated with compounds (10 μM for 72 hours) from multiple small molecule libraries (FIG. 1f and FIG. 2). In total, 9,157 small molecules were screened in quadruplicate, normalizing values to vehicle-treatment (0.2% DMSO) (Table 1). The unsilencing of Snrpn-EGFP was determined three days after drug treatment. The immunofluorescence-processed fibroblasts were imaged for Hoechst and Alexa Fluor 488 fluorescence using a BD Pathway 855 high content imaging microscope. Antibody-enhanced Snrpn-EGPF fluorescence intensity was determined in drug-treated cells individually and normalized to cells treated with vehicle control. In order to identify potentially active compounds, an arbitrary cutoff of 125% was used where 100% indicates basal fluorescence in the vehicle-treated MEFs. Analysis was performed using Cell Profiler with custom macro and algorithms. Potential active drugs were defined as the increase in drug-mediated EGFP fluorescence consistently observed across quadruplicate wells and minimal or no cytotoxicity measured by Hoechst-stained nuclear structure (and the changes in total number of cells). After initial validation of all potential active drugs (e.g., to determine whether active compounds show inherent fluorescence, the wild-type fibroblasts were also treated), only effective hit compounds further validated in dose-response tests to determine relative efficacy (Emax) and potency (EC50). The dose-response results were analyzed by using Graphpad Prism (Graphpad Software). The calculated EC50 values (potencies) and estimated Emax (efficacy, Y-value top plateau) enabled comparative analyses of the relative potency and efficacy of the identified compounds.
Three days after drug treatment, the cells were fixed at 4% paraformaldehyde at room temperature for 10 min, followed by rinsing with 1× PBS. The cells were permeabilized with 0.5% Triton X-100 in 1× PBS at room temperature for 10 min, followed by blocking with 5% normal goat serum in 0.1% Triton X-100 in 1× PBS at room temperature for 30 minutes. Primary rabbit anti-GFP antibody (1:1000, Novus Biologicals cat. no. NB100-1770) was incubated at 4° C. overnight. The next day, the cells were rinsed with 1× PBS and incubated with goat anti-rabbit Alexa Fluor 488 (Invitrogen cat. no. A-11008) and Hoechst at room temperature. One hour after incubation, the cells were rinsed with 1× PBS and imaged for Hoechst and Alexa Fluor 488 fluorescence using a BD Pathway 855 high content imaging microscope.
It is not feasible to design a screen for noncoding RNA. Alternatively, SNRPN/Snprn is paternally expressed but maternally silenced in all human and mouse tissues. The allele-specific expression of human SNRPN is regulated by the PWS-IC, which also controls the expression of host transcripts for SnoRNAs, including the SNORD116 cluster between SNRPN and UBE3A. see Le Meur, E. et al., Dev. Biol. 286, 587-600 (2005). Thus, the Snrpn-EGFP fusion protein (hereafter S-EGFP) was used as a marker for high content screening (HCS). It was determined that small molecules that can unsilence S-EGFP would also be effective in reactivating the host transcript of SNORD116. […]

human PWS fibroblasts = experiment: Chromatin immunoprecipitation (ChIP-qPCR) of H3K9me2/H3K9me3; type: cell-based; details: in words
Procedure: Histone methylations on the SNRPN locus in human fibroblasts were analyzed by chromatin immunoprecipitation assay (ChIP) using the protocol as previously reported (see Fulmer-Smentek et al., Human molecular genetics 10, 645-652 (2001)). ChIP assay was performed using ChIP-IT Express magnetic kit (Active Motif) according to the manufacturer's instructions with modification for the fixation and reverse-crosslinking steps. Briefly, native chromatin was prepared without fixation and enzymatic digestions to average 150-500 bp sized chromatin. 20 μg of chromatin was added to the specific antibodies (2 μg) or species control isotype antibodies for each immunoprecipitation reaction. The antibody-chromatin complexes were bound to protein G magnetic beads for recovering chromatin immunoprecipitates. RNase- and proteinase K-treated DNA was purified using PCR purification columns (Promega). DNA recovery was quantified by real time PCR performed on the LightCycler480 instrument (Roche) using SsoAdvanced Universal SYBR green Supermix (Biorad). Antibodies were anti-rabbit acetylated H3 (Millipore 06-599), anti-mouse monoclonal Histone H3 dimethyl K9 (Abcam 1220) and Histone H3 trimethyl K9 (Millipore, 07-442) antibodies. qPCR reactions were performed with the following cycling parameters: at 95° C./5 min followed by 40 cycles of 95° C./30 sec, 60° C./60 sec. Data was normalized to the total input.

PWS-IC = experiment: Bisulfite genomic sequencing of PWS-IC, human PWS cells; type: cell-based
Procedure: Genomic DNA was isolated from human PWS fibroblasts or mouse tissues. DNA (1 μg) was then treated by bisulfite using the Epi-Tect bisulfite kit (Qiagen), and 125 ng input DNA was used per PCR amplification. PCR products were sub-cloned into pGEM-T easy vector (Promega) and an average of 15 clones were sequenced. DNA sequencing results were analyzed using BISMA web-based analysis platform with a setting for individual clones with <95% bisulfite conversion and <90% sequence identity to be excluded in the analysis.

Row | SMILES | activation of S-EGFP (maternal Snrpn-EGFP MEFs) | level of H3K9me2 (and H3K9me3) in the PWS-IC (human PWS fibroblasts) | DNA methylation of the PWS-IC (PWS-IC)
1 | COc1cc2nc(N3CCCN(C)CC3)nc(NC3CCN(Cc4ccccc4)CC3)c2cc1OC [BIX01294, reference compound] | did not have a substantial effect | – | –
2 | C[S+](CC[C@H](N)C(=O)O)C[C@H]1O[C@@H](n2cnc3c(N)ncnc32)[C@H](O)[C@@H]1O (some centres unmarked) [S-adenosyl-methionine, reference compound] | did not have an effect | – | –
3 | CCCC(CCC)C(=O)O [valproic acid, reference compound] | did not have an effect | – | –
4 | Nc1ncn([C@H]2C[C@H](O)[C@@H](CO)O2)c(=O)n1 [5-Aza-dC, 5-aza deoxycytidine, reference compound] | – | reduced | significantly decreased
5 | O=C(CCCCCCC(=O)Nc1ccccc1)NO [vorinostat, suberoylanilide hydroxamic acid, reference compound] | did not have an effect | – | –
6 | CC(/C=C/C(=O)NO)=C\[C@@H](C)C(=O)c1ccc(N(C)C)cc1 [trichostatin A, reference compound] | did not have an effect | – | –
7 | Nc1ccccc1NC(=O)c1ccc(CNC(=O)OCc2cccnc2)cc1 [entinostat, reference compound] | did not have an effect | – | –
